Assay results from patent US11085056B2, “Transfection complexes and methods of using the same” (MOLECULAR TRANSFER, INC., priority 2015, dated 2021).

Legend:
HeLa Cells [1] = test: Transfection of HeLa cells with DOTMA/DOPE/peptide and eGFP plasmid, fluorescent plate reader; format: cell-based; conditions: DOTMA/DOPE 1:1 plus peptide with RRRRRRRRRRRR (SEQ ID NO: 109) at n terminus; EF1Alpha eGFP plasmid; 0.01 mL complex; 42 hours
Method: (§1) Cells were plated to so that on the day of transfection the cells were 60-70% confluent in 96 well tissue culture plates. A DOMTA/DOPE Lipid solution (1:1 molar ratio) at 2 mg/mL in water were mixed with an equal volume of surface ligand peptides that had the nucleic acid binding moiety RRRRRRRRRRRR (SEQ ID NO: 109) covalently linked to the n terminus of each peptide during peptide synthesis. Peptides were at 2 mg/mL in water. The DOTMA/DOPE and the surface ligand peptide solution the transfection reagent was diluted 1 to 1 (v/v) in water. DOMTA/DOPE/PEPTIDE solutions were added to 0.1 mL of a plasmid DNA solution (EF1Alpha eGFP plasmid) at 5 μg/mL in OptiMEM. Lipofectamine 2000 was obtained from Life Technologies.
(§2) All solutions were at room temperature. A volume of 0.2 mL of a 5 μg/mL solution of DNA was aliquoted into each well of a non-tissue cultured treated plate. 4.0 μL of transfection reagents were added to DNA solutions respectively. The transfection reagent and DNA solution was mixed by pipetting up and down twice. Transfection complexes were formed for 10 minutes. After 10 minutes, 0.01 or 0.02 mL of the transfection complex was added to cells. HuVEC, HeLa, human adult keratinocytes, human primary adult fibroblast, and rat cortical neurons all respectively received 0.01 mL of the tramsfectopm complex. Human skeletal muscle cells, mouse C2C12 cells, Jurkat, and THP-1 cells received 0.02 mL of the transfection complex. Cells were incubated for 42 hours at 37° C. at 5% CO2. Plates were read on a fluorescent plate reader. Cells were also examined visually under a microscope to assess the extent of transfection (in terms of the percent of cells transfected) with a fluorescent microscope. Other modes of analysis, for example quantification with B-galactosidase or luciferase reports plasmids can also be used. […] Surface ligand that caused increase expression of GFP over the lipid DOTMA with no surface ligand were considered to enhance transfection or had higher % cells transfected were considered to enhance transfection. Peptides that gave greater than 2 fold enhancement are noted in bold and could be further optimized by adding different transfection enhancers or could be used with different cationic lipids or polymers.

HuVec Cells = test: Transfection of HuVec cells with DOTMA/DOPE/peptide and eGFP plasmid, fluorescent plate reader; format: cell-based; conditions: DOTMA/DOPE 1:1 plus peptide with RRRRRRRRRRRR (SEQ ID NO: 109) at n terminus; EF1Alpha eGFP plasmid; 0.01 mL complex; 42 hours
Method: as §1, §2

NL-1 iPS Cells = test: Transfection of NL-1 iPS cells with DOTMA/DOPE/peptide and eGFP plasmid, fluorescent plate reader; format: cell-based; conditions: DOTMA/DOPE 1:1 plus peptide with RRRRRRRRRRRR (SEQ ID NO: 109) at n terminus; EF1Alpha eGFP plasmid; 42 hours
Method: as §1, §2

C2C12 Cells = test: Transfection of C2C12 cells with DOTMA/DOPE/peptide and eGFP plasmid, fluorescent plate reader; format: cell-based, mouse; conditions: DOTMA/DOPE 1:1 plus peptide with RRRRRRRRRRRR (SEQ ID NO: 109) at n terminus; EF1Alpha eGFP plasmid; 0.02 mL complex; 42 hours
Method: as §1, §2

Human Fibroblast Cells = test: Transfection of human fibroblast cells with DOTMA/DOPE/peptide and eGFP plasmid, fluorescent plate reader; format: cell-based; conditions: DOTMA/DOPE 1:1 plus peptide with RRRRRRRRRRRR (SEQ ID NO: 109) at n terminus; EF1Alpha eGFP plasmid; 0.01 mL complex; 42 hours
Method: as §1, §2

Jurkat Cells = test: Transfection of Jurkat cells with DOTMA/DOPE/peptide and eGFP plasmid, fluorescent plate reader; format: cell-based; conditions: DOTMA/DOPE 1:1 plus peptide with RRRRRRRRRRRR (SEQ ID NO: 109) at n terminus; EF1Alpha eGFP plasmid; 0.02 mL complex; 42 hours
Method: as §1, §2

HeLa Cells [2] = test: Transfection of HeLa cells with DOTMA/SEQ ID NO: 72/peptide compared with Lipofectamine 2000; format: cell-based; conditions: fusogenic peptide 0.1 mg/mL
Method: as §1, §2
The fusogenic peptide was added to the DOMTA/peptide formulation to achieve a final concentration of 0.1 mg/mL to see if transfection reagents were further enhanced by the addition of a fusogenic peptide and could provide higher transfection efficiency into HeLa cells and expression than the commercially available Lipofectamine 2000.

some examined cell types = test: Transfection expression and % cells transfected over the no peptide control; format: cell-based; conditions: on some examined cell types
Method: as §1, §2

[3] = 0.1 μL of DOTMA/SEQ ID NO: 72/Peptide in well of a 96 well plate
[4] = 0.2 μL of DOTMA/SEQ ID NO: 72/Peptide in well of a 96 well plate
[5] = 0.3 μL of DOTMA/SEQ ID NO: 72/Peptide in well of a 96 well plate
[6] = 0.4 μL of DOTMA/SEQ ID NO: 72/Peptide in well of a 96 well plate

Row | Substance | RF (Relative Fluorescence) of Transfection of HeLa Cells (HeLa Cells [1]) | RF (Relative Fluorescence) of Transfection of HuVec Cells (HuVec Cells) | RF (Relative Fluorescence) of Transfection of NL-1 iPS Cells (NL-1 iPS Cells) | RF (Relative Fluorescence) of Transfection of C2C12 Cells (C2C12 Cells) | RF (Relative Fluorescence) of Transfection of Human Fibroblast Cells (Human Fibroblast Cells) | RF (Relative Fluorescence) of Transfection of Jurkat Cells (Jurkat Cells) | RF (Relative Fluorescence), DOTMA/SEQ ID NO: 72/Peptide, HeLa Cells (HeLa Cells [2]; [3]) | RF (Relative Fluorescence), DOTMA/SEQ ID NO: 72/Peptide, HeLa Cells (HeLa Cells [2]; [4]) | RF (Relative Fluorescence), DOTMA/SEQ ID NO: 72/Peptide, HeLa Cells (HeLa Cells [2]; [5]) | RF (Relative Fluorescence), DOTMA/SEQ ID NO: 72/Peptide, HeLa Cells (HeLa Cells [2]; [6]) | transfection expression and the % cells transfected over the no peptide control (some examined cell types)
1 | 353 (KKQRFRHRNRKGYRSQ; Peptidic transfection agent) [compound 353] | 29119 | 8772 | 9248 | 4291 | 8653 | 11107 | 36315 | 44772 | 36882 | 25802 | increased
2 | 343 (LFSHAVSSNG; Peptidic transfection agent) [compound 343] | 5910 | 16239 | 21726 | 3218 | 4590 | 23499 | 6961 | 8626 | 8577 | 8160 | increased
3 | 341 (LRAHAVDVNG; Peptidic transfection agent) [compound 341] | 4108 | 15906 | 20446 | 2141 | 2284 | 18042 | 6406 | 7469 | 8020 | 7546 | increased
4 | 381 (TAGSCL; Peptidic transfection agent) [compound 381] | 22652 | 17542 | 9644 | 8834 | 9953 | 10806 | 34187 | 37463 | 27007 | 20088 | increased
5 | 351 (LNRQELFPFG; Peptidic transfection agent) [compound 351] | 12279 | 15379 | 24646 | 3530 | 8061 | 9730 | 7678 | 11499 | 10575 | 8791 | increased
6 | 454 (TGLSCLQRFTTM; Peptidic transfection agent) [compound 454] | 34550 | 13336 | 18100 | 9280 | 7568 | 8224 | 34033 | 37099 | 27412 | 16023 | increased
